From patent US11471460B2, “Autophagy modulators for use in treating cancer” (The United States of America,as represented by the …, priority 2017, dated 2022)
“Also recorded” adds a separate entry of the source.

Key:
[1] = target: T1, PIKFYVE (Homo sapiens, UniProt Q9Y2I7); assay: DiscoverX KINOMEscan dissociation constant; assay type: binding
T1 construct: purchased DiscoverX (KINOMEscan service, San Diego, Calif.)
Protocol: Each kinase was tagged with a unique DNA sequence that allowed the amount of protein bound to the solid support to be quantified by PCR. The top three targets for compound 1 were PIKFYVE, PIP4K2C and MTOR. […] Dissociation constants (Kd) were determined from the amount of kinase captured on the solid support as a function of the test compound concentration (nM) on a log10 scale. Mean Kd values (±range) are given for each compound. The ratio of PIP4K2C to PIKFYVE indicates the relative specificity for these two kinases.
To address this hypothesis, a panel of 468 human kinases were screened for their ability to bind compound 1. […] The top two candidates were PIKFYVE (phosphoinositide kinase FYVE-type zinc finger containing) and PIP4K2C (phosphatidylinositol-5-phosphate 4-kinase). PIKFYVE is a kinase that is essential for mouse development (49) and that prevents endosome enlargement and cytoplasmic vacuolization (50, 51). PIP4K2C is a kinase that is not essential for mouse growth and viability, but it is essential for the immune system (52), mTORC1 signaling (53), and regulation of autophagy (54). The third candidate was MTOR, a kinase that regulates autophagy (55). Therefore, the binding constants (Kd) for all five members of the compound 1-family were determined for each of these three proteins from two independent titration curves, as shown for compound 1.

[2] = test system: melanoma A375 tumors; assay: Expansion of preformed A375 tumors in outbred nude mice; assay type: in vivo
Protocol: Melanoma A375 cells were inoculated subcutaneously into outbred nude mice on day 0 (broad arrow). Intraperitoneal injections (arrows) of vehicle (open circles), 20 mg compound 1 (grey circles), or 40 mg compound 1/kg (solid circle) of mouse weight were administered daily beginning with day 7 when palpable tumors were present. Each group contained three mice. SEMs are indicated. Error bars indicate the SEM for 6 tumors.
The genetic diversity of human populations is greater than the genetic diversity of inbred animals. Therefore, the experiment in FIG. 20 with inbred nude mice was repeated with outbred nude mice.

[3] = test system: U2OS cells; assay: Size of LAMP1-RFP-labeled vacuoles (lysosomes), confocal microscopy; assay type: cell-based, human
Protocol: LAMP1 protein is a lysosomal membrane marker. Nuclei were stained with DAPI. Therefore, the enlarged cytoplasmic vacuoles induced by compounds from this invention are lysosomes.
The selection of circular, enlarged, lysosomes was carried out using a size mask of 0.5 to 5.0 μm^2. Punctate lysosomes were selected with a size mask of 0.1 to 1.5 μm^2. Thresholds were the same for all images. Clustered lysosomes were not included in the size analysis. The mean area (μm^2)±SEM was plotted (O). From 235 to 545 lysosomes were measured for each time point. The number of lysosomes per μm^2 (E) was determined at the beginning and end of this experiment and plotted on a separate Y-axis.

[4] = test system: U2OS cells; assay: Tandem sensor RFP-GFP-LC3B: fraction of yellow (neutral pH) puncta; assay type: cell-based, human; settings: 1 μM, 4 hrs
Protocol: Confocal microscopic images are shown in FIG. 12A of U2OS cells expressing a modified tandem sensor RFP-GFP-tagged LC3B protein in which the green signal from a mutated GFP was suppressed in an acidic environment, with little or no effect on the red signal from RFP. Thus, autophagosomes with neutral pH would fluoresce yellow, whereas autolysosomes with acidic pH would fluoresce red. These cells were treated with either vehicle or 1 μM compound 1 for 4 hrs. The fraction of yellow puncta, representing autophagosomes with a neutral pH, was quantified in 50 cells from each of three independent experiments (mean±SEM; Student's t-test, p<0.0001) as shown in FIG. 12B. The fraction of yellow puncta increased 4-fold in the presence of compound 1 (right side graph).
To determine whether the accumulation of autophagosomes resulted from induction of autophagy or from disruption of autophagic flux, cells were transfected with a vector expressing a modified tandem sensor RFP-GFP-tagged LC3B protein in which the green signal from a mutated GFP was suppressed in an acidic environment, with little or no effect on the red signal from RFP^41. Therefore, in merged images, only red puncta indicated acidic autolysosomes; yellow puncta indicated either autophagosomes or non-acidic autolysosomes. […]

[5] = test system: osteosarcoma U2OS cells; assay: Induction of cytoplasmic vacuoles (enlarged lysosomes) in U2OS cells, light microscopy; assay type: cell-based, human
From the text: Vehicle is the concentration of DMSO that was introduced by addition of compounds.
These effects are dependent on the compound selected, its concentration and the length of time cells are exposed to the compound.
Cells were obtained from the American Type Culture Collection. BORCS5-KO HeLa cells have been described previously. Osteosarcoma U2OS were routinely seeded in 6-well plates (0.5×10^5 cells/well) and cultured in Dulbecco's Modified Eagle's medium supplemented with L-Glutamine, 4.5 g/L Glucose, Sodium Pyruvate, Phenol Red, and either heat-inactivated or normal 10% fetal calf serum at 37° C. in 5% CO2. Approximately 15-19 hours later, the indicated compound was added in 1:1000 dilutions. Results were the same using either heat-inactivated or normal fetal calf serum. Melanoma A375, embryonic kidney 293T and human foreskin fibroblast Hs27 cells were cultured in the same medium, except that cells were seeded into 12-well plates at 10^3 cells/well.
Phase contrast photographs were taken on an Olympus CKX41 microscope. Confocal photographs were taken on a Leica TCS-SP5II. For immunofluorescence microscopy, the cells were fixed in 4% paraformaldehyde (Electron Microscopy Sciences, 15714) in PBS for 12 min, permeabilized with 0.2% Triton X-100 in PBS for 10 min, and blocked in 0.2% BSA (Sigma-Aldrich, A7030) in PBS for 30 min at 37° C. For endogenous LC3 staining, cells were permeabilized in methanol for 20 min at −20° C. after the paraformaldehyde fixation. The cells were sequentially incubated with primary antibodies (LAMP1: Developmental Studies Hybridoma Bank; LC3 and LAMTOR4: Cell Signaling Technology; FLAG epitope: Sigma-Aldrich) and secondary antibodies conjugated to Alexa Fluor dyes (Life Technologies) diluted with 0.2% BSA in PBS for 30 min at 37° C. Coverslips were mounted on glass slides using Fluoromount-G (Electron Microscopy Sciences, 17984-24). Cells were imaged using a Zeiss LSM880 with AiryScan confocal microscope (Carl Zeiss AG, Oberkochen, Germany) or a Leica TCS-SP5II. The final composite images were created and properly analyzed for lysosomal size examination using ImageJ (NIH).

T1 sequence (Q9Y2I7 whole entry): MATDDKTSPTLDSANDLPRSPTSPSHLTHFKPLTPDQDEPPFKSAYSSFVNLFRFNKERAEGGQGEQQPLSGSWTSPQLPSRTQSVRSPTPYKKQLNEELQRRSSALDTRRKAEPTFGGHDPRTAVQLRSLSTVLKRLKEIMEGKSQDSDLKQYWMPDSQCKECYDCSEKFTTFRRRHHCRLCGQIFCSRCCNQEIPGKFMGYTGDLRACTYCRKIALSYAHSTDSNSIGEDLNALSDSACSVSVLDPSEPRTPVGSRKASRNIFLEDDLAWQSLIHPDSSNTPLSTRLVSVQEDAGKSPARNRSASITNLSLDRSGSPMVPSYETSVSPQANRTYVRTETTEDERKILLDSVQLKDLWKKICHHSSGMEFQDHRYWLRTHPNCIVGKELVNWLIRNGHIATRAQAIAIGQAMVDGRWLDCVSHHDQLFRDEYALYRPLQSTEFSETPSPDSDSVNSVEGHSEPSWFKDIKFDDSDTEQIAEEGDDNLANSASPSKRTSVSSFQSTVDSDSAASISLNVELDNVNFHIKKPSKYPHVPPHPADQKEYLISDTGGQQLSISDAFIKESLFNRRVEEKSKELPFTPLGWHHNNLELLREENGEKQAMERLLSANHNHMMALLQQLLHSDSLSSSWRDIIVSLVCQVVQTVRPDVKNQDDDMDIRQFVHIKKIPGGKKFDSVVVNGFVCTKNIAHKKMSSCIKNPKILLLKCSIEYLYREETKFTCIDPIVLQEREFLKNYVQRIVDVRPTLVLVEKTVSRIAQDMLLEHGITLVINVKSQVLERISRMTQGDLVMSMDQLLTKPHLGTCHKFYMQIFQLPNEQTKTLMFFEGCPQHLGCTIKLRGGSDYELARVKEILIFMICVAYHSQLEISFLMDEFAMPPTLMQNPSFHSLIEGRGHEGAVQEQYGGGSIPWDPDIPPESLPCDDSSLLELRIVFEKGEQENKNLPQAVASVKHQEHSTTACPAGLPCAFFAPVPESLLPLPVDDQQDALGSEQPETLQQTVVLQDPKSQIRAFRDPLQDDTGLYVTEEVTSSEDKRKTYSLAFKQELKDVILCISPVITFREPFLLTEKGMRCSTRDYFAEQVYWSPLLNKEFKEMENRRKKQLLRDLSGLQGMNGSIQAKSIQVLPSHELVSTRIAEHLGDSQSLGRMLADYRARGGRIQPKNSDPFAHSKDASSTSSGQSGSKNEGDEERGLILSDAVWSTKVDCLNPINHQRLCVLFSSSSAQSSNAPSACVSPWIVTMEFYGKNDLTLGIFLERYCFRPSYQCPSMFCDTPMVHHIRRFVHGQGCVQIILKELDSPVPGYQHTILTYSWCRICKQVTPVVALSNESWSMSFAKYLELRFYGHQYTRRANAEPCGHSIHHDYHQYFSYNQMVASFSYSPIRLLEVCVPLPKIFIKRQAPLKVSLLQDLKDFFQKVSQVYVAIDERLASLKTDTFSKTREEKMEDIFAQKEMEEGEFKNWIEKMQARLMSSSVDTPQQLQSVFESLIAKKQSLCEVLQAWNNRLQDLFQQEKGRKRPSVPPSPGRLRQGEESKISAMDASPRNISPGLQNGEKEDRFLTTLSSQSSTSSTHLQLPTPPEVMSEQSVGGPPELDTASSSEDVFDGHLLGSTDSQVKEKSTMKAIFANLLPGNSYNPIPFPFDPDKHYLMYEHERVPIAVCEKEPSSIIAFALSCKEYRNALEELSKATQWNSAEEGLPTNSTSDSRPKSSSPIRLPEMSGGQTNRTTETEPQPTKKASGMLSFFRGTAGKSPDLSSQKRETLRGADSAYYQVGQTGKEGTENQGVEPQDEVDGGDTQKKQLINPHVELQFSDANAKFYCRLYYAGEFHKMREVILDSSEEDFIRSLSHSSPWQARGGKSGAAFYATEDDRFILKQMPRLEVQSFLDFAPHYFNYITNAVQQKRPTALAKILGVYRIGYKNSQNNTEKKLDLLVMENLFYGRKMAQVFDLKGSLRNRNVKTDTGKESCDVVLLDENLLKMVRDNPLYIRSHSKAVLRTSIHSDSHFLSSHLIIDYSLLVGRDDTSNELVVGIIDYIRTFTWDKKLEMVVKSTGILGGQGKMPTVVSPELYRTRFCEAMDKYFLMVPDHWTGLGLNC

- Standing within the family for PIKFYVE binding [1]: the most potent member
- Kd ([1]; mean of two independent titration curves): 1 nM
- Ill effects on mice ([2]; mice weighed each day during injections): no visible ill effects
Structure (SMILES): C1=Nc2ccccc2/C1=C/NNc1nc(Nc2ccccc2)nc(N2CCOCC2)n1 [compound 1]
- Expansion of preformed tumors ([2]; 20 or 40 mg/kg intraperitoneally daily, outbred nude mice): inhibited by compound 1 in a dose dependent manner; also recorded: inhibited growth of tumors
- Time for lysosomal motility and size to revert after removal of the compound ([3]; live cells expressing LAMP1-RFP): within one hour
- Increase in size of LAMP1-labeled vacuoles ([3]; within 20 hours, 1 μM): 9 fold
- Increase in fraction of yellow puncta [4]: 4 fold
- Puncta that were yellow in merged images [4]: at least 80%
- Time to detect vacuoles by light microscopy ([5]; U2OS cells): ≤ 20 min
- Variation of the concentration required to induce vacuolization, most potent compared to least potent ([5]; U2OS cells, compound 1 compared to compound 3): 400 fold
- Concentration at which 80% of the cells were vacuolated ([5]; by 4 hours): 0.01 to 0.1 µM
- Concentration to induce LC3-II accumulation, inhibit proliferation or viability relative to concentration to observe vacuolization ([5]; same U2OS cells): about 30 fold
